Measured values from PubChem BioAssay AID248 (DTP/NCI, 2004).
Several values for one entry are separate records, joined by “and”; a condition that tells them apart may be missing. Identical values can stand only once. Toxic doses and inconclusive results are not listed. Cut-off read from the data, not from the text of the source: active = T/C of 150% or more; inactive = T/C below 125%.

Tested on: L1210 leukemia ip in BDF1 mice, survival T/C
Assay: NCI In Vivo Anticancer Drug Screen. Data for tumor model L1210 Leukemia (intraperitoneal) in B6D2F1 (BDF1) mice
Conditions: higher = longer survival
Procedure, shortened: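 Transplanted-tumor mice were given test agent; controls received vehicle only. Survival readings from the two groups were divided (treated over control).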

[1] = endpoint: mean survival time, dose: 100.0 mg/kg/injection, schedule: Q04DX002 (ip), vehicle: Klucel (hydroxypropylcellulose) (HPC)
[2] = endpoint: mean survival time, dose: 200.0 mg/kg/injection, schedule: Q04DX002 (ip), vehicle: Klucel (hydroxypropylcellulose) (HPC)
[3] = endpoint: mean survival time, dose: 400.0 mg/kg/injection, schedule: Q04DX002 (ip), vehicle: Klucel (hydroxypropylcellulose) (HPC)
[4] = endpoint: mean survival time, dose: 100.0 mg/kg/injection, schedule: Q01DX009 (ip), vehicle: Klucel (hydroxypropylcellulose) (HPC)
[5] = endpoint: mean survival time, dose: 100.0 mg/kg/injection, schedule: Q01DX009 (ip), vehicle: saline with Tween-80
[6] = endpoint: mean survival time, dose: 50.0 mg/kg/injection, schedule: Q01DX009 (ip), vehicle: saline with Tween-80
[7] = endpoint: mean survival time, dose: 200.0 mg/kg/injection, schedule: Q01DX009 (ip), vehicle: saline with Tween-80
[8] = endpoint: mean survival time, dose: 200.0 mg/kg/injection, schedule: Q04DX003 (ip), vehicle: saline
[9] = endpoint: mean survival time, dose: 400.0 mg/kg/injection, schedule: Q04DX003 (ip), vehicle: saline
[10] = endpoint: mean survival time, dose: 100.0 mg/kg/injection, schedule: Q04DX003 (ip), vehicle: saline
[11] = endpoint: mean survival time, dose: 100.0 mg/kg/injection, schedule: Q04DX003 (ip), vehicle: saline with Tween-80
[12] = endpoint: mean survival time, dose: 200.0 mg/kg/injection, schedule: Q04DX003 (ip), vehicle: saline with Tween-80
[13] = endpoint: mean survival time, dose: 400.0 mg/kg/injection, schedule: Q04DX003 (ip), vehicle: saline with Tween-80

Measured: T/C

O=C(Nc1ccc(Cl)cc1)O/C(=C(/OC(=O)Nc1ccc(Cl)cc1)c1ccc(Cl)cc1)c1ccc(Cl)cc1
inactive: [1] 96 % of control | [2] 92 % of control | [3] 89 % of control

Cc1ccccc1NC(=S)N(C)C
inactive: endpoint: mean survival time, dose: 25.0 mg/kg/injection, schedule: Q01DX009 (ip), vehicle: Klucel (hydroxypropylcellulose) (HPC) 103 % of control | endpoint: mean survival time, dose: 25.0 mg/kg/injection, schedule: Q04DX003 (ip), vehicle: Klucel (hydroxypropylcellulose) (HPC) 98 % of control | endpoint: mean survival time, dose: 50.0 mg/kg/injection, schedule: Q01DX009 (ip), vehicle: Klucel (hydroxypropylcellulose) (HPC) 104 % of control | endpoint: mean survival time, dose: 50.0 mg/kg/injection, schedule: Q04DX003 (ip), vehicle: Klucel (hydroxypropylcellulose) (HPC) 91 % of control | [4] 103 % of control | endpoint: mean survival time, dose: 100.0 mg/kg/injection, schedule: Q04DX003 (ip), vehicle: Klucel (hydroxypropylcellulose) (HPC) 95 % of control and 103 % of control

CC1(C)c2ccccc2C(=O)C1(Br)Cc1ccccc1 (configuration not stated)
inactive: [5] 90 % of control

COc1ccc(-n2c(=O)c(N=Nc3ccccc3Cl)c(O)n(-c3ccccc3C)c2=S)cc1
inactive: endpoint: mean survival time, dose: 100.0 mg/kg/injection, schedule: Q01DX001 (ip), vehicle: Klucel (hydroxypropylcellulose) (HPC) 97 % of control | endpoint: mean survival time, dose: 200.0 mg/kg/injection, schedule: Q01DX001 (ip), vehicle: Klucel (hydroxypropylcellulose) (HPC) 93 % of control | endpoint: mean survival time, dose: 400.0 mg/kg/injection, schedule: Q01DX001 (ip), vehicle: Klucel (hydroxypropylcellulose) (HPC) 104 % of control

Cl
inactive: endpoint: mean survival time, dose: 50.0 mg/kg/injection, schedule: Q01DX009 (oral), vehicle: water 97 % of control | endpoint: median survival time, dose: 15.0 mg/kg/injection, schedule: Q01DX009 (ip), vehicle: water 87 % of control | endpoint: median survival time, dose: 30.0 mg/kg/injection, schedule: Q01DX009 (ip), vehicle: water 100 % of control | endpoint: median survival time, dose: 60.0 mg/kg/injection, schedule: Q01DX009 (ip), vehicle: water 112 % of control | endpoint: median survival time, dose: 90.0 mg/kg/injection, schedule: Q01DX009 (ip), vehicle: water 112 % of control

O=C(Nc1ccc(C2=NCCN2)cc1)c1cc(Cl)c(C(=O)Nc2ccc(C3=NCCN3)cc2)cc1Cl
inactive: endpoint: mean survival time, dose: 13.4 mg/kg/injection, schedule: Q01DX Z (ip), vehicle: carboxymethylcellulose (CMC) 104 % of control | endpoint: mean survival time, dose: 20.0 mg/kg/injection, schedule: Q01DX Z (ip), vehicle: carboxymethylcellulose (CMC) 123 % of control | endpoint: mean survival time, dose: 45.0 mg/kg/injection, schedule: Q01DX Z (ip), vehicle: carboxymethylcellulose (CMC) 88 % of control

[O-][n+]1ccccc1C(c1ccccc1)c1ccccc1
inactive: [6] 90 % of control | [5] 90 % of control | [7] 90 % of control

O=C(O)C(Cc1cccs1)c1ccccc1 (configuration not stated)
inactive: endpoint: mean survival time, dose: 50.0 mg/kg/injection, schedule: Q04DX003 (ip), vehicle: carboxymethylcellulose (CMC) 98 % of control | endpoint: mean survival time, dose: 100.0 mg/kg/injection, schedule: Q04DX003 (ip), vehicle: carboxymethylcellulose (CMC) 106 % of control | endpoint: mean survival time, dose: 200.0 mg/kg/injection, schedule: Q04DX003 (ip), vehicle: carboxymethylcellulose (CMC) 106 % of control

Cn1cnc([N+](=O)[O-])c1[Se]c1ncnc2c1c(C#N)cn2C1OC(CO)C(O)C1O (configuration not stated)
inactive: endpoint: mean survival time, dose: 6.25 mg/kg/injection, schedule: Q01DX009 (ip), vehicle: saline 111 % of control | endpoint: mean survival time, dose: 12.5 mg/kg/injection, schedule: Q01DX005 (ip), vehicle: saline 95 % of control | endpoint: mean survival time, dose: 12.5 mg/kg/injection, schedule: Q01DX009 (ip), vehicle: saline 113 % of control | endpoint: mean survival time, dose: 15.0 mg/kg/injection, schedule: Q01DX009 (ip), vehicle: saline 103 % of control | endpoint: mean survival time, dose: 25.0 mg/kg/injection, schedule: Q01DX005 (ip), vehicle: saline 111 % of control | endpoint: mean survival time, dose: 25.0 mg/kg/injection, schedule: Q01DX009 (ip), vehicle: saline 108 % of control and 117 % of control | endpoint: mean survival time, dose: 42.0 mg/kg/injection, schedule: Q01DX009 (ip), vehicle: saline 110 % of control

CC(=O)C(CCC#N)(CCC#N)CCC#N
inactive: endpoint: mean survival time, dose: 75.0 mg/kg/injection, schedule: Q01DX009 (ip), vehicle: saline 93 % of control | endpoint: mean survival time, dose: 150.0 mg/kg/injection, schedule: Q01DX009 (ip), vehicle: saline 95 % of control | [8] 102 % of control | endpoint: mean survival time, dose: 300.0 mg/kg/injection, schedule: Q01DX009 (ip), vehicle: saline 93 % of control | [9] 87 % of control

CCOC(=N)N1C(N)=NC(=O)C1c1ccccc1 (configuration not stated)
inactive: endpoint: mean survival time, dose: 100.0 mg/kg/injection, schedule: Q01DX009 (ip), vehicle: saline 105 % of control | [10] 110 % of control | endpoint: mean survival time, dose: 200.0 mg/kg/injection, schedule: Q01DX009 (ip), vehicle: saline 110 % of control | [8] 103 % of control | endpoint: mean survival time, dose: 400.0 mg/kg/injection, schedule: Q01DX009 (ip), vehicle: saline 96 % of control | [9] 105 % of control

OCCCCN1CCCCC1
inactive: endpoint: mean survival time, dose: 100.0 mg/kg/injection, schedule: Q01DX001 (ip), vehicle: saline 106 % of control | endpoint: mean survival time, dose: 200.0 mg/kg/injection, schedule: Q01DX001 (ip), vehicle: saline 101 % of control

Cc1cc(CCl)c(Br)cc1CCl
inactive: [1] 100 % of control | [2] 100 % of control | [3] 107 % of control

O=C(N/N=C/c1ccccc1Cl)c1ccccc1
inactive: [11] 96 % of control | [12] 101 % of control | [13] 88 % of control

CC1(C)CC(=O)C(c2ccc([N+](=O)[O-])cc2)=C(O)c2ccccc21
inactive: [6] 91 % of control | [5] 94 % of control | [7] 91 % of control

CN1N(C(O)C(Cl)(Cl)Cl)C12CCCCC2 (configuration not stated)
inactive: endpoint: mean survival time, dose: 200.0 mg/kg/injection, schedule: Q01DX001 (ip), vehicle: carboxymethylcellulose (CMC) 101 % of control | endpoint: mean survival time, dose: 400.0 mg/kg/injection, schedule: Q01DX001 (ip), vehicle: carboxymethylcellulose (CMC) 98 % of control

Cc1cc(Br)c2c(C)ccc(C)c2n1
inactive: endpoint: mean survival time, dose: 2.0 mg/kg/injection, schedule: Q01DX001 (ip), vehicle: saline 98 % of control | endpoint: mean survival time, dose: 5.0 mg/kg/injection, schedule: Q01DX001 (ip), vehicle: saline 102 % of control | endpoint: mean survival time, dose: 10.0 mg/kg/injection, schedule: Q01DX001 (ip), vehicle: saline 96 % of control

CCCC(C)C(C#N)C(=O)OCC (configuration not stated)
inactive: [11] 106 % of control | [12] 101 % of control | [13] 105 % of control

CCOC(=O)OC1CC/C(=N\NC(N)=S)C1 (configuration not stated)
inactive: endpoint: mean survival time, dose: 15.0 mg/kg/injection, schedule: Q01DX Z (ip), vehicle: methylcellulose (MC) 104 % of control | endpoint: mean survival time, dose: 30.0 mg/kg/injection, schedule: Q01DX Z (ip), vehicle: methylcellulose (MC) 101 % of control | endpoint: mean survival time, dose: 60.0 mg/kg/injection, schedule: Q01DX Z (ip), vehicle: methylcellulose (MC) 108 % of control | endpoint: mean survival time, dose: 120.0 mg/kg/injection, schedule: Q01DX Z (ip), vehicle: methylcellulose (MC) 98 % of control

CC1CCCCN1 (configuration not stated)
inactive: endpoint: mean survival time, dose: 100.0 mg/kg/injection, schedule: Q04DX002 (ip), vehicle: saline 105 % of control | endpoint: mean survival time, dose: 200.0 mg/kg/injection, schedule: Q04DX002 (ip), vehicle: saline 94 % of control | endpoint: mean survival time, dose: 400.0 mg/kg/injection, schedule: Q04DX002 (ip), vehicle: saline 112 % of control

O=C(NCSC1=NCCS1)NCSC1=NCCS1
inactive: [4] 107 % of control | [10] 97 % of control | endpoint: mean survival time, dose: 200.0 mg/kg/injection, schedule: Q01DX009 (ip), vehicle: Klucel (hydroxypropylcellulose) (HPC) 92 % of control | [8] 114 % of control | endpoint: mean survival time, dose: 400.0 mg/kg/injection, schedule: Q01DX009 (ip), vehicle: Klucel (hydroxypropylcellulose) (HPC) 96 % of control | [9] 97 % of control
